Source: patent US20080009418A1, “Selective Inhibitors” (Alchemia LTD., priority 2004, published 2008)

How the values were obtained:
Human κ-Opioid (KOP) = target: T1, Human κ-Opioid (KOP) (Homo sapiens, UniProt P41145); experiment: Radioligand binding, human κ-opioid (KOP) membranes, filtration, [3H]-Diprenorphine; conditions: compound at 10 μM; [3H]-Diprenorphine
T1 construct: purchased Perkin Elmer Biosignal
Outline: (§1)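 Filtration binding on cloned human receptor membranes (1 Unit/well), [125I]-Substance P for NK1 and [3H]-Diprenorphine for KOP, 1 h at room temperature. Filters PEI-presoaked, washed with cold 50 mM Tris-HCl pH 7.4, counted by scintillation; percent inhibition calculated, reference ligand defining non-specific binding.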

Human neurokinin (NK1) = target: T2, Human neurokinin (NK1) (Homo sapiens, UniProt P25103); experiment: Radioligand binding, human neurokinin NK1 membranes, filtration, [125I]-Substance P; conditions: compound at 10 μM; [125I]-Substance P
T2 construct: purchased Perkin Elmer Biosignal
Outline: as §1

Mouse urotensin (mUR2) = target: T3, Mouse urotensin (mUR2) (Mus musculus, UniProt Q8VIH9); experiment: Radioligand binding, mouse urotensin mUR2 membranes, FlashPlate, [125I]-Urotensin II; conditions: compound at 10 μM; [125I]-Urotensin II
T3 construct: purchased Perkin Elmer Biosignal
T3 sequence (Q8VIH9 1-385): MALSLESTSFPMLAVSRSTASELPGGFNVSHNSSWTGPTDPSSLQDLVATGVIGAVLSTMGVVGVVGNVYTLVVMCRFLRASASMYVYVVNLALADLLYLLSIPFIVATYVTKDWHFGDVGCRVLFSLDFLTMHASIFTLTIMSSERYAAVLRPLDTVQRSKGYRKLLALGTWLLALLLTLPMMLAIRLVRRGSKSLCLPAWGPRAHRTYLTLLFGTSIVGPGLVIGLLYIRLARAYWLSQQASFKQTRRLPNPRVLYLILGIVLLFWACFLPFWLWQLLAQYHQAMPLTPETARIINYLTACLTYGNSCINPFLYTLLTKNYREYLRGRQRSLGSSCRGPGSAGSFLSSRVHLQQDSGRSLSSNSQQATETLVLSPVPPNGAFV
Outline: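 Cloned mouse urotensin (mUR2) receptor membranes from Perkin Elmer Biosignal were immobilized in FlashPlate microplates using a proprietary coating. Each well got 19.5 μl buffer, then 0.5 μl of DMSO, reference ligand, or compound. Adding 5 μl of [125I]-Urotensin II, diluted to 5× final concentration in binding buffer, started binding. Plates were sealed with TopSeal-A and incubated 1 hour at room temperature in the dark. Wells were counted for 30 seconds each on a TopCount after a 60-second delay, and percentage inhibition was calculated.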

Human melanocortin (MC5) = target: T4, Human melanocortin (MC5) (Homo sapiens, UniProt P33032); experiment: Radioligand binding, human melanocortin MC5 membranes, FlashPlate, [125I]-NDP-αMSH; conditions: compound at 10 μM; [125I]-NDP-αMSH
T4 construct: purchased Perkin Elmer Biosignal
Outline: (§2)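 Cloned human receptor membranes were coated onto FlashPlate wells and incubated with radioligand and compound (added from a 0.5 mM DMSO daughter plate) for 1 hour at room temperature in the dark. Scintillation counting gave percent inhibition, with DMSO defining total and reference ligand defining non-specific binding.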

Human opioid (ORL1) = target: T5, Human opioid (ORL1) (Homo sapiens, UniProt P41146); experiment: Radioligand binding, human opioid ORL1 membranes, FlashPlate, [125I]-Nociceptin; conditions: compound at 10 μM; [125I]-Nociceptin
T5 construct: purchased Perkin Elmer Biosignal
Outline: as §2

Human μ-opioid (MOP) = target: T6, Human μ-opioid (MOP) (Homo sapiens, UniProt P35372); experiment: Radioligand binding, human μ-opioid (MOP) membranes, FlashPlate, [3H]-Naloxone; conditions: compound at 10 μM; [3H]-Naloxone
T6 construct: purchased Perkin Elmer Biosignal
Outline: as §2

Human δ-opioid (DOP) = target: T7, Human δ-opioid (DOP) (Homo sapiens, UniProt P41143); experiment: Radioligand binding, human δ-opioid (DOP) membranes, FlashPlate, [3H]-Bremazocine; conditions: compound at 10 μM; [3H]-Bremazocine
T7 construct: purchased Perkin Elmer Biosignal
Outline: as §2

Human Melanocortin (MC3) = target: T8, Human Melanocortin (MC3) (Homo sapiens, UniProt P41968); experiment: Radioligand binding, human melanocortin MC3 membranes, FlashPlate, [125I]-NDP-αMSH; conditions: compound at 10 μM; [125I]-NDP-αMSH
T8 construct: purchased Perkin Elmer Biosignal
Outline: as §2

Human Melanocortin (MC4) = target: T9, Human Melanocortin (MC4) (Homo sapiens, UniProt P32245); experiment: Radioligand binding, human melanocortin MC4 membranes, FlashPlate, [125I]-NDP-αMSH; conditions: compound at 10 μM; [125I]-NDP-αMSH
T9 construct: purchased Perkin Elmer Biosignal
Outline: as §2

[1] = target: T10, Human neuropeptide Y (NPY-Y1) (Homo sapiens, UniProt P25929); experiment: Radioligand binding, human neuropeptide Y NPY-Y1 membranes, FlashPlate, [125I]-PYY; conditions: compound at 10 μM; [125I]-PYY
T10 construct: purchased Perkin Elmer Biosignal
T10 sequence (P25929 1-384): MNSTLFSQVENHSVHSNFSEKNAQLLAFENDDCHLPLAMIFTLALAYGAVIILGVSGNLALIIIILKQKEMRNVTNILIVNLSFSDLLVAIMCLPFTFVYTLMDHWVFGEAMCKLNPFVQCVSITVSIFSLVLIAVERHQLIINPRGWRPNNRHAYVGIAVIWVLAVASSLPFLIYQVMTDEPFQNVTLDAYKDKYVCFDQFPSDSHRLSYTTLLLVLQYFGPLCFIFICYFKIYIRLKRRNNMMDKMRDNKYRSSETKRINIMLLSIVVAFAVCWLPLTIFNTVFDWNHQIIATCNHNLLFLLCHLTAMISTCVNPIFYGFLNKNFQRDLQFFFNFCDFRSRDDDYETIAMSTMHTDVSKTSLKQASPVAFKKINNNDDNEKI
Outline: as §2

[2] = target: T11, Human melanin-concentrating hormone (MCH1) (Homo sapiens, UniProt Q99705); experiment: Radioligand binding, human melanin-concentrating hormone MCH1 membranes, FlashPlate, [125I]-S36057; conditions: compound at 10 μM; [125I]-S36057
T11 construct: purchased Perkin Elmer Biosignal
Outline: as §2

T11 sequence (Q99705 whole entry): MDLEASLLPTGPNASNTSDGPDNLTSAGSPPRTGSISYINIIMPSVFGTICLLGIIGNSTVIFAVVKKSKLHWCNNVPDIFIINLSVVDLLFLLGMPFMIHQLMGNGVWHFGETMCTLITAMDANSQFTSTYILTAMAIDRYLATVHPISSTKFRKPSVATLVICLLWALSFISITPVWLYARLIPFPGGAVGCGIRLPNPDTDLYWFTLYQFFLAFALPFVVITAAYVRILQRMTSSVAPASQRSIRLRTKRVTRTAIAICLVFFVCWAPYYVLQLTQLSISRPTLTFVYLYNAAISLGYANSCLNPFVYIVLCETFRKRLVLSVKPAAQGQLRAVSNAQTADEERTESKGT
T7 sequence (P41143 whole entry): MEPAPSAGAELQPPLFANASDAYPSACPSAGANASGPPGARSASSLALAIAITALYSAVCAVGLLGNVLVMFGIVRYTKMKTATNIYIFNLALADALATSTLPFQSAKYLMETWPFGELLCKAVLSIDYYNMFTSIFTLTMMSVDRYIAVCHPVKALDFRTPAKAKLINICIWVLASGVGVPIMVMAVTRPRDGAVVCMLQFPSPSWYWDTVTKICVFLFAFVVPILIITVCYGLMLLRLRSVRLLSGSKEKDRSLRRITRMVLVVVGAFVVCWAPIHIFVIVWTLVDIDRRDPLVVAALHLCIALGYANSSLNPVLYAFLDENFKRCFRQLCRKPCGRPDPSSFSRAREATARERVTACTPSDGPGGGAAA
T2 sequence (P25103 whole entry): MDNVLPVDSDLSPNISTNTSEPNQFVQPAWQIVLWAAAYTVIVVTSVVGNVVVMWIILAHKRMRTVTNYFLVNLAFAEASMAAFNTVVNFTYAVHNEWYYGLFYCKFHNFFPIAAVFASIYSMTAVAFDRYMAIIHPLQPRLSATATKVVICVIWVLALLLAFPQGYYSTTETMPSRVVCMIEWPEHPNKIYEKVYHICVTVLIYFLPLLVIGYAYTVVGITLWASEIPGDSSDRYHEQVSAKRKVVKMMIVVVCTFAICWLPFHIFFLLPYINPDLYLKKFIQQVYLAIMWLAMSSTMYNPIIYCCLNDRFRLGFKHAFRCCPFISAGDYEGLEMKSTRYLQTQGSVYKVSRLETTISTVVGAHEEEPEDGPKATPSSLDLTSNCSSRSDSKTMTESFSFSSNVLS
T1 sequence (P41145 whole entry): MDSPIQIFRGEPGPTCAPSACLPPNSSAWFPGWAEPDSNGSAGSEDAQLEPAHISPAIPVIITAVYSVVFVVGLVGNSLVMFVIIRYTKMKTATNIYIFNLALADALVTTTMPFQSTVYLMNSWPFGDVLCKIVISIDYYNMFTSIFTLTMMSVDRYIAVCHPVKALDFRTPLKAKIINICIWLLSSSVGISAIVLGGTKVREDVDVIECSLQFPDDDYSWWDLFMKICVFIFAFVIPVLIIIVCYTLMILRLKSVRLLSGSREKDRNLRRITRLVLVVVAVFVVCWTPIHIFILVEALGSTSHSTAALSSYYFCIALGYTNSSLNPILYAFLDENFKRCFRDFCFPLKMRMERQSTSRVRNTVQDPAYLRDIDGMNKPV
T8 sequence (P41968 whole entry): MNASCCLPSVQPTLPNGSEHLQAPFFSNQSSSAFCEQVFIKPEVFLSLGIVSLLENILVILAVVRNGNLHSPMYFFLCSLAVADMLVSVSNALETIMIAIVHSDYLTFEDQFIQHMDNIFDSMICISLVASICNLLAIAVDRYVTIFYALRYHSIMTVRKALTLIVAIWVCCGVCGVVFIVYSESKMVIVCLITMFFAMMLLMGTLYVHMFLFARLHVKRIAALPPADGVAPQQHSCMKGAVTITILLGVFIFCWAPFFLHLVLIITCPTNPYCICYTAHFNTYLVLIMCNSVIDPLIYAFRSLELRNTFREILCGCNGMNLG
T6 sequence (P35372 whole entry): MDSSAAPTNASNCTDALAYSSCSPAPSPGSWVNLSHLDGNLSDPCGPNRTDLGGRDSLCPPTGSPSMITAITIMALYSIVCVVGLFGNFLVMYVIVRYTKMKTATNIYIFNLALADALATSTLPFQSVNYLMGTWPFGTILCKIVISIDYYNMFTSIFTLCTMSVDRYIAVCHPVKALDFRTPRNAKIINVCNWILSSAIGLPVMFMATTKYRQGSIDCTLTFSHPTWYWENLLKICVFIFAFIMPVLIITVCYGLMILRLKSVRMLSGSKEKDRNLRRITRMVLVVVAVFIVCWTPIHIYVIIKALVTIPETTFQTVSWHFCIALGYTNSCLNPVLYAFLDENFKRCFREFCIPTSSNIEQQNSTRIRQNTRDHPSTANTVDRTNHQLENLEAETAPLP
T9 sequence (P32245 whole entry): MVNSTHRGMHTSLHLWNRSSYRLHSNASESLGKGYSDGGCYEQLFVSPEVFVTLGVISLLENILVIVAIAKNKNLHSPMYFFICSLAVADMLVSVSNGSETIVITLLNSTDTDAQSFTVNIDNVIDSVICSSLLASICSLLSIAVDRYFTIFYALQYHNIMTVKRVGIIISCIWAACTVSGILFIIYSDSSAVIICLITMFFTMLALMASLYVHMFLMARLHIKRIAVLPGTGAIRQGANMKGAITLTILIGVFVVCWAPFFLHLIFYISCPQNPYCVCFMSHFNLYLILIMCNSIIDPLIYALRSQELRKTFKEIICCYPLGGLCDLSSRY
T5 sequence (P41146 whole entry): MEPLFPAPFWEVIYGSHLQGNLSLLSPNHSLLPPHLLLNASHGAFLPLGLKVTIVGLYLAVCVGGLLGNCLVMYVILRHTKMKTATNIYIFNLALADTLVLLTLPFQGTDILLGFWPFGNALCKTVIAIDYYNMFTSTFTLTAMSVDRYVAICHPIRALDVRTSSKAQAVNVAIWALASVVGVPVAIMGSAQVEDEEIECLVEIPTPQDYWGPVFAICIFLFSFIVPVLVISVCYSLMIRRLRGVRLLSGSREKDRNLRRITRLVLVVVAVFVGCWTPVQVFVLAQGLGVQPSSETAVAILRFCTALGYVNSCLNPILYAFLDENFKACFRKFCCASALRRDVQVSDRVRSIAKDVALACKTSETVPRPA
T4 sequence (P33032 whole entry): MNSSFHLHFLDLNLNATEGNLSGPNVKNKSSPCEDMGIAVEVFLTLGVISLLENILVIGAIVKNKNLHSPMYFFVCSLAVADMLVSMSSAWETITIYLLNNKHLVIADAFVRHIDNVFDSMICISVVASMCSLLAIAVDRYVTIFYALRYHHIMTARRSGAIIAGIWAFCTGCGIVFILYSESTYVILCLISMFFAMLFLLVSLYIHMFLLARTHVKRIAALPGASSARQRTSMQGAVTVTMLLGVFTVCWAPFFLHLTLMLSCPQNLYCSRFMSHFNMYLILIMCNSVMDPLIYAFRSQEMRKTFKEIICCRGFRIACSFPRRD

## CO[C@H]1[C@H](O)[C@@H](COCc2cccc(O)c2)OC(OCc2ccc(-c3ccccc3)cc2)[C@@H]1NC(=O)CCNC(=N)N (stereo partly shown) [compound 147]
Human κ-Opioid (KOP)
  A2 radioligand binding, percentage inhibition: + (“+” indicates greater than 50% inhibition at 10 μM)
Human neurokinin (NK1)
  A8 radioligand binding, percentage inhibition: + (“+” indicates greater than 50% inhibition at 10 μM)
Mouse urotensin (mUR2)
  A11 radioligand binding, percentage inhibition: − (“−” indicates less than 50% inhibition at 10 μM)
Human melanocortin (MC5)
  A5 radioligand binding, percentage inhibition: + (“+” indicates greater than 50% inhibition at 10 μM)
Human opioid (ORL1)
  A10 radioligand binding, percentage inhibition: − (“−” indicates less than 50% inhibition at 10 μM)
Human μ-opioid (MOP)
  A7 radioligand binding, percentage inhibition: + (“+” indicates greater than 50% inhibition at 10 μM)
Human δ-opioid (DOP)
  A1 radioligand binding, percentage inhibition: − (“−” indicates less than 50% inhibition at 10 μM)
Human Melanocortin (MC3)
  A3 radioligand binding, percentage inhibition: − (“−” indicates less than 50% inhibition at 10 μM)
Human Melanocortin (MC4)
  A4 radioligand binding, percentage inhibition: + (“+” indicates greater than 50% inhibition at 10 μM)
[1]
  A9 radioligand binding, percentage inhibition: − (“−” indicates less than 50% inhibition at 10 μM)
[2]
  A6 radioligand binding, percentage inhibition: + (“+” indicates greater than 50% inhibition at 10 μM)

## CO[C@H]1[C@H](O)[C@@H](COCc2cccc(O)c2)OC(OCc2ccc(-c3ccccc3)cc2)[C@@H]1NC(=O)CCCN (stereo partly shown) [compound 148]
Human κ-Opioid (KOP)
  A2 radioligand binding, percentage inhibition: − (“−” indicates less than 50% inhibition at 10 μM)
Human neurokinin (NK1)
  A8 radioligand binding, percentage inhibition: + (“+” indicates greater than 50% inhibition at 10 μM)
Mouse urotensin (mUR2)
  A11 radioligand binding, percentage inhibition: − (“−” indicates less than 50% inhibition at 10 μM)
Human melanocortin (MC5)
  A5 radioligand binding, percentage inhibition: − (“−” indicates less than 50% inhibition at 10 μM)
Human opioid (ORL1)
  A10 radioligand binding, percentage inhibition: − (“−” indicates less than 50% inhibition at 10 μM)
Human μ-opioid (MOP)
  A7 radioligand binding, percentage inhibition: − (“−” indicates less than 50% inhibition at 10 μM)
Human δ-opioid (DOP)
  A1 radioligand binding, percentage inhibition: − (“−” indicates less than 50% inhibition at 10 μM)
Human Melanocortin (MC3)
  A3 radioligand binding, percentage inhibition: − (“−” indicates less than 50% inhibition at 10 μM)
Human Melanocortin (MC4)
  A4 radioligand binding, percentage inhibition: − (“−” indicates less than 50% inhibition at 10 μM)
[1]
  A9 radioligand binding, percentage inhibition: − (“−” indicates less than 50% inhibition at 10 μM)
[2]
  A6 radioligand binding, percentage inhibition: − (“−” indicates less than 50% inhibition at 10 μM)

## CO[C@H]1[C@H](O)[C@@H](COCc2cccc(O)c2)OC(OCc2ccc(-c3ccccc3)cc2)[C@@H]1NC(=O)CCCNC(=N)N (stereo partly shown) [compound 149]
Human κ-Opioid (KOP)
  A2 radioligand binding, percentage inhibition: − (“−” indicates less than 50% inhibition at 10 μM)
Human neurokinin (NK1)
  A8 radioligand binding, percentage inhibition: + (“+” indicates greater than 50% inhibition at 10 μM)
Mouse urotensin (mUR2)
  A11 radioligand binding, percentage inhibition: − (“−” indicates less than 50% inhibition at 10 μM)
Human melanocortin (MC5)
  A5 radioligand binding, percentage inhibition: − (“−” indicates less than 50% inhibition at 10 μM)
Human opioid (ORL1)
  A10 radioligand binding, percentage inhibition: − (“−” indicates less than 50% inhibition at 10 μM)
Human μ-opioid (MOP)
  A7 radioligand binding, percentage inhibition: + (“+” indicates greater than 50% inhibition at 10 μM)
Human δ-opioid (DOP)
  A1 radioligand binding, percentage inhibition: − (“−” indicates less than 50% inhibition at 10 μM)
Human Melanocortin (MC3)
  A3 radioligand binding, percentage inhibition: − (“−” indicates less than 50% inhibition at 10 μM)
Human Melanocortin (MC4)
  A4 radioligand binding, percentage inhibition: − (“−” indicates less than 50% inhibition at 10 μM)
[1]
  A9 radioligand binding, percentage inhibition: − (“−” indicates less than 50% inhibition at 10 μM)
[2]
  A6 radioligand binding, percentage inhibition: − (“−” indicates less than 50% inhibition at 10 μM)

## CO[C@H]1[C@H](O)[C@@H](COCc2cccc(O)c2)OC(OCc2ccc3ccccc3c2)[C@@H]1NC(=O)CNC(=N)N (stereo partly shown) [compound 150]
Human κ-Opioid (KOP)
  A2 radioligand binding, percentage inhibition: + (“+” indicates greater than 50% inhibition at 10 μM)
Human neurokinin (NK1)
  A8 radioligand binding, percentage inhibition: − (“−” indicates less than 50% inhibition at 10 μM)
Mouse urotensin (mUR2)
  A11 radioligand binding, percentage inhibition: − (“−” indicates less than 50% inhibition at 10 μM)
Human melanocortin (MC5)
  A5 radioligand binding, percentage inhibition: + (“+” indicates greater than 50% inhibition at 10 μM)
Human opioid (ORL1)
  A10 radioligand binding, percentage inhibition: − (“−” indicates less than 50% inhibition at 10 μM)
Human μ-opioid (MOP)
  A7 radioligand binding, percentage inhibition: + (“+” indicates greater than 50% inhibition at 10 μM)
Human δ-opioid (DOP)
  A1 radioligand binding, percentage inhibition: − (“−” indicates less than 50% inhibition at 10 μM)
Human Melanocortin (MC3)
  A3 radioligand binding, percentage inhibition: − (“−” indicates less than 50% inhibition at 10 μM)
Human Melanocortin (MC4)
  A4 radioligand binding, percentage inhibition: − (“−” indicates less than 50% inhibition at 10 μM)
[1]
  A9 radioligand binding, percentage inhibition: − (“−” indicates less than 50% inhibition at 10 μM)
[2]
  A6 radioligand binding, percentage inhibition: − (“−” indicates less than 50% inhibition at 10 μM)

## CO[C@H]1[C@H](O)[C@@H](COCc2cccc(O)c2)OC(OCc2ccc3ccccc3c2)[C@@H]1NC(=O)CCNC(=N)N (stereo partly shown) [compound 151]
Human κ-Opioid (KOP)
  A2 radioligand binding, percentage inhibition: − (“−” indicates less than 50% inhibition at 10 μM)
Human neurokinin (NK1)
  A8 radioligand binding, percentage inhibition: − (“−” indicates less than 50% inhibition at 10 μM)
Mouse urotensin (mUR2)
  A11 radioligand binding, percentage inhibition: − (“−” indicates less than 50% inhibition at 10 μM)
Human melanocortin (MC5)
  A5 radioligand binding, percentage inhibition: − (“−” indicates less than 50% inhibition at 10 μM)
Human opioid (ORL1)
  A10 radioligand binding, percentage inhibition: − (“−” indicates less than 50% inhibition at 10 μM)
Human μ-opioid (MOP)
  A7 radioligand binding, percentage inhibition: + (“+” indicates greater than 50% inhibition at 10 μM)
Human δ-opioid (DOP)
  A1 radioligand binding, percentage inhibition: − (“−” indicates less than 50% inhibition at 10 μM)
Human Melanocortin (MC3)
  A3 radioligand binding, percentage inhibition: − (“−” indicates less than 50% inhibition at 10 μM)
Human Melanocortin (MC4)
  A4 radioligand binding, percentage inhibition: − (“−” indicates less than 50% inhibition at 10 μM)
[1]
  A9 radioligand binding, percentage inhibition: − (“−” indicates less than 50% inhibition at 10 μM)
[2]
  A6 radioligand binding, percentage inhibition: − (“−” indicates less than 50% inhibition at 10 μM)
